Measured values: US20260248087A1, “GENERATING DOUBLED HAPLOID PLANTS” (Syngenta Crop Protection AG, priority 2023, published 2026)

Tests used:
GST27 [1] = assay: GST27 induction, metcamifen co-treatment of isolated embryos during colchicine doubling; assay type: cell-based, maize; details: for GST27 Induction Mean: co-treatment with colchicine
Experimental: (§1) For the examples below, GST27 was used as a quick indicator for treatment effectiveness.
(§2) Isolated embryos were treated with metcamifen during colchicine doubling (also referred to as co-treatment). Metcamifen was added in the colchicine co-treatment media (a.k.a. doubling media) as a formulation at concentrations of 0, 200, 400, 800, 1200 mg/L. Metcamifen concentrations tested for a 24-hour duration ranged from 0-1000 mg/L. Metcamifen concentrations tested for a 48-hour condition ranged from 0-1200 mg/L. Three to four genotypes representing two heterotic groups were tested.
(§3) Initial testing on three genotypes included co-treatment of metcamifen and colchicine in Gelzan media at 28° C. with 150 PAR light at concentrations of 0, 200, and 1000 mg/L to identify a range of working concentrations. The 200 and 1000 mg/L concentrations induced similar GST27 expression levels for both the 24- and 48-hour durations. The resulting induction was higher (400 ng/mg TSP GST27) than recorded with pre-treatments of ears or isolated embryos. […] Metcamifen co-treatment of isolated embryos optimization continued by testing levels of 0, 400, 600, and 800 mg/L for 24 and 48 hours with 4 genotypes across 2 heterotic groups. GST induction (ng/mg TSP) was measured after metcamifen co-treatment. […] The percent potted rate after metcamifen co-treatment was similar for both time durations when sorted by genotype or heterotic group.

GST27 [2] = assay: GST27 induction, metcamifen post-treatment during germination; assay type: cell-based, maize; details: for GST27 Mean: post-treatment in germination media (2.5 g/L Gelzan)
Experimental: as §1
Doubled haploid embryos were treated with metcamifen during germination. Metcamifen was tested in the germination media at 0, 5, and 10 mg/L after colchicine treatment completion for 24 or 48 hours. The germination media comprised Gelzan at a concentration of 3.5 g/L. Four genotypes were tested representing two heterotic groups. […] The percent potting rate was not increased as result of these post-treatments. […] This led to a looping of the roots. A reduction in Gelzan concentration from 3.5 g/L to 2.5 g/L was tested (comparison data not presented here). The experiments were then carried out with 2.5 g/L Gelzan for metcamifen post-treatments while the control (0 metcamifen) contained 3.5 g/L Gelzan. Metcamifen was tested as 0, 5, 10 and 20 mg/L after colchicine treatment completion for 24 and 48 hours. The reduction in Gelzan of the metcamifen post-treatments led to a higher percent potting rate (see Table 5).

isolated embryos = assay: Potted rate after metcamifen co-treatment during colchicine doubling; assay type: in vivo, maize; details: for Potted Rate Mean: co-treatment with colchicine
Experimental: As used herein, the term “potted rate” or “potting rate” refers to the percent of germinated embryos successfully transferred to soil from total treated haploid embryos. The “potted rate” is used as an indication of plant health in monitoring the success of recovery and growth after treatment of haploids. As used herein, the term “transplant rate” refers to the survival of healthy plants after embryos were germinated and transferred to soil.
as §2, §3

corn embryos = assay: Uptake of metcamifen and metabolism of colchicine in corn embryos (LCMS); assay type: in vitro ADME
Experimental: An experiment was completed to evaluate the uptake of metcamifen into corn embryos, whether colchicine is metabolized in the embryos, and if metcamifen increased the rate of colchicine metabolism. Corn embryos were co-treated with 500 ppm colchicine in the presence of 200 ppm, 1000 ppm or no metcamifen (control) for 24 or 48 hours and frozen. One biological replicate was represented by five embryos, and three biological replicates were used per co-treatment.
Prior to extraction, embryos were washed for 20 seconds in 80:20 (v/v) acetonitrile:H2O to remove any colchicine and metcamifen on the surface. Each replicate was extracted in 0.5 ml methanol using a fast prep maceration method. Then, samples were diluted 1 in 10 prior to analysis by Liquid Chromatography Mass Spectrometry (LCMS). Samples were analyzed alongside matrix matched standards of colchicine and metcamifen. Metabolite investigations were performed to identify any metabolites.

[3] = initial testing, 200 and 1000 mg/L, 24-hour co-treatment

CNC(=O)Nc1ccc(S(=O)(=O)NC(=O)c2ccccc2OC)cc1 [Metcamifen, metcamifen]
GST27 induction among 0, 400, 600, 800 mg/L (GST27 [1]; 800 mg/L, 48-hour co-treatment, 4 genotypes): highest induction
GST27 Induction Mean (GST27 [1]; 200 mg/L, 24 hours): 383.25 ng/mg TSP
GST27 Induction Mean (GST27 [1]; 400 mg/L, 24 hours): 396.13 ng/mg TSP
GST27 Induction Mean (GST27 [1]; 400 mg/L, 48 hours): 609.50 ng/mg TSP
GST27 Induction Mean (GST27 [1]; 800 mg/L, 24 hours): 489.38 ng/mg TSP
GST27 Induction Mean (GST27 [1]; 800 mg/L, 48 hours): 666.50 ng/mg TSP
GST27 Induction Mean (GST27 [1]; 1200 mg/L, 48 hours): 796.63 ng/mg TSP
GST27 induction (GST27 [1]; initial testing, 200 and 1000 mg/L, 24- and 48-hour, Gelzan media, 28° C., three genotypes): 400 ng/mg TSP
GST27 expression versus control (GST27 [2]; post-treatment 5 and 10 mg/L, 3.5 g/L Gelzan, 24 and 48 hours): higher than the control group
GST27 Mean (GST27 [2]; 5 mg/L, Duration 24 hours): 327 ng/mg TSP
GST27 Mean (GST27 [2]; 5 mg/L, Duration 48 hours): 317 ng/mg TSP
GST27 Mean (GST27 [2]; 10 mg/L, Duration 24 hours): 345 ng/mg TSP
GST27 Mean (GST27 [2]; 10 mg/L, Duration 48 hours): 290 ng/mg TSP
GST27 Mean (GST27 [2]; 20 mg/L, Duration 24 hours): 404 ng/mg TSP
GST27 Mean (GST27 [2]; 20 mg/L, Duration 48 hours): 400 ng/mg TSP
Potted Rate Mean (isolated embryos; 200 mg/L, 24 hours): 84%
Potted Rate Mean (isolated embryos; 400 mg/L, 24 hours): 84%
Potted Rate Mean (isolated embryos; 400 mg/L, 48 hours): 14%
Potted Rate Mean (isolated embryos; 800 mg/L, 24 hours): 92%
Potted Rate Mean (isolated embryos; 800 mg/L, 48 hours): 73%
Potted Rate Mean (isolated embryos; 1200 mg/L, 48 hours): 71%
percent potted rate versus 1000 mg/L and control (isolated embryos; initial testing, 200 mg/L, 48-hour co-treatment): increased the percent potted rate
doubled haploid ears produced versus the control (isolated embryos; [3]): increase in the doubled haploid ears produced
percent potted rate versus the control (isolated embryos; [3]): increased the percent potted rate
effect of metcamifen on amount of colchicine recovered (corn embryos; 500 ppm colchicine with 200 or 1000 ppm metcamifen): did not reduce the amount of colchicine recovered
metcamifen in embryo extracts (uptake) (corn embryos; co-treated with 500 ppm colchicine and 200 or 1000 ppm metcamifen, 24 and 48 hours): could be detected
recovery amount of colchicine metabolite (−14, O-demethylation) (corn embryos; duration and metcamifen co-treatment): increased
